Data on 13 molecules can be found in US20220273659A1, “HETEROCYCLIC COMPOUNDS AS KINASE INHIBITORS” (NUVATION BIO INC., priority 2019, published 2022).

SMILES strings stand for the structures. Where two headings read alike, the source gives them in different places.

The target of one test is T1, CDK1 (cyclin B) (Homo sapiens, UniProt P06493).
T1 construct: purchased Invitrogen Life Technologies (assay service)
The test can be described thus: Z'-LYTE kinase assay. It counts as biochemical. On the procedure:
The plates were shaken for 30 seconds, and incubated for 60 minutes at room temperature. […] The plates were read on fluorescence plate reader with Dual emission at 445 nm and 520 nm.
The following equations were used for Z′-LYTE™ Screening Assay Data Analysis.

For another test, the target named is T2, CDK2 (cyclin A) (Homo sapiens, UniProt P24941).
T2 construct: purchased Invitrogen Life Technologies (assay service)
The test can be described thus: Z'-LYTE kinase assay. It counts as biochemical. The procedure:
IC50 values of compounds against CDK2 (cyclin A) were determined by Z′-LYTE™ These screening assays were performed at Invitrogen Life Technologies (Grand Island, N.Y.) on a low volume NBS, black 384-well plate (#4514, Corning). 0.1 μL of 100×test compound in 100% DMSO (at specific solutions) was mixed with 2.4 μL of Kinase Buffer (50 mM HEPES pH 7.5, 0.01% BRIJ-35, 10 mM MgCl2, 1 mM EGTA), 5 μL of 2× Kinase (1.22-10.3 ng CDK2/cyclin A)/Peptide (2 μM Ser/Thr 12), and 2.5 μL of 4×ATP solution (31 μM). The plates were shaken for 30 seconds, and incubated for 60 minutes at room temperature. Development Reagent Solution (5 μL of 1:1024 dilution) was added to the plates followed with another 30-second plate shake and the plates were further incubated at room temperature for one hour. The plates were read on fluorescence plate reader with Dual emission at 445 nm and 520 nm.
The following equations were used for Z′-LYTE™ Screening Assay Data Analysis. Percent inhibition (100-% activity) was fitted to the “four-parameter logistic model” in XLfit for determination of IC50 values.

Another test has as its target T3, FMS kinase (Homo sapiens, UniProt P07333).
T3 construct: purchased Invitrogen (Life Technologies)
The experiment in a line: LanthaScreen Eu Kinase Binding Assay (ATP, fluorescent-PolyGT substrate). It counts as biochemical. The procedure, abridged:
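Kinase (1.25 nM) preincubated 10 min with 3-fold compound dilutions, then ATP 10 μM and fluorescent PolyGT substrate 200 nM added for 1 h in the dark at room temperature. Stopped with Tb-antibody (4 nM) and EDTA 20 mM; TR-FRET at 340 nm excitation, 495/520 nm emission; IC50 from four-parameter fit.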
A general note: In TR-FRET formats the signal depends on donor and acceptor labels being close together.

Test [1] relates to MCF-7 breast adenocarcinoma cells. The experiment in a line: Cancer cell proliferation assay, single agent (cell viability). The following applies: Homo sapiens, MCF7, Table 4; Rb positive; treatment 144 Hr with medium change at 72 Hr; Cell Titer-Glo or resazurin. It counts as cell-based. In short, it runs like this: (§1)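 Cells seeded day 1, then exposed on day 2 to 7–9 compound concentrations (e.g. 1.1 nM–10 μM); BT-549 for 24 h, MCF-7 and DU4475 for 144 h with medium change at 72 h. Viability by CellTiter-Glo or resazurin; IC50 from variable-slope sigmoidal fit.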
(In general: ATP-based viability assays read luminescence as a measure of living cells.)

Test [2] concerns DU4475 breast carcinoma cells. Described as above. The following applies: Homo sapiens, DU-4475; Table 4; Rb negative; treatment 144 Hr with medium change at 72 Hr; Cell Titer-Glo or resazurin. Format: cell-based. The procedure, abridged: as §1
Another test has as its target T4, CDK4 (Homo sapiens, UniProt P11802).
T4 construct: purchased Invitrogen PR8064A
The test can be described thus: In vitro kinase inhibition IC50, luminescence (ADP Glo), retinoblastoma substrate. To be noted: read-out: CDK4/D1 IC50. Format: biochemical. In short, it runs like this: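 CDK4 enzyme (5 nM, Invitrogen) was combined with test compound and a mix of retinoblastoma substrate (1 μM) plus ATP (25 μM) in kinase buffer, 30 μL/well in 96-well half area white plates. After 2H at room temperature, ADP Glo reagent stopped the reaction for 45 min, then detection reagent was added and luminescence was read.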
Background: ADP-Glo first removes unused ATP, then detects ADP through luciferase.

Another test addresses T5, CDK6 (Homo sapiens, UniProt Q00534).
T5 construct: purchased Invitrogen PR8422B
The description is as above. Format: biochemical. To be noted: read-out: CDK6/D1 IC50. In short, it runs like this:
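Recombinant CDK6 (5 nM) with retinoblastoma substrate (1 μM) and 25 μM ATP, compound at final 0.1–200 nM, incubated 2 h at room temperature. ADP formed detected by ADP-Glo luminescence. IC50 from four-parameter logistic fit of percent inhibition.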

T1 sequence (P06493 whole entry): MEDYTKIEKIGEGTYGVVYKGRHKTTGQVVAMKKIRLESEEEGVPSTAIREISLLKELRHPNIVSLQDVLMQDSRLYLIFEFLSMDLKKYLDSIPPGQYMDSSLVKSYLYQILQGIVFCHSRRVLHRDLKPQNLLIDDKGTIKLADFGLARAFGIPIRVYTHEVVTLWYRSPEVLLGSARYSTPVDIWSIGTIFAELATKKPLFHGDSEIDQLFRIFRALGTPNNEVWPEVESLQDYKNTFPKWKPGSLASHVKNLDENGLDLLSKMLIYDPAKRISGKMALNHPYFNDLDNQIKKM
T1 sequence (P14635 whole entry partner): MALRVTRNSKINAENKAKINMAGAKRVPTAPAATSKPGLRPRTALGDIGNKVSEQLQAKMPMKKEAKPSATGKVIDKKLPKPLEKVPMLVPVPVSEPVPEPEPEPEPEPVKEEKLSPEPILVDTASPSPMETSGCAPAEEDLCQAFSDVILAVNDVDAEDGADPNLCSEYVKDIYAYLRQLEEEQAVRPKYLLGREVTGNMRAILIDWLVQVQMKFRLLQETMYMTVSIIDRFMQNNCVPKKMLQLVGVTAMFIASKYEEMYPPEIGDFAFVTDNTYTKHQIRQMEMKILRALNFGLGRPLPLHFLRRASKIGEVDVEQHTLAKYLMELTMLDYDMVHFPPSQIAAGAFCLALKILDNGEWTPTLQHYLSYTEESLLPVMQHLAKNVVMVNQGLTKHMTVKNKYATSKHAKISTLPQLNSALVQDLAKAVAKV
T5 sequence (Q00534 whole entry): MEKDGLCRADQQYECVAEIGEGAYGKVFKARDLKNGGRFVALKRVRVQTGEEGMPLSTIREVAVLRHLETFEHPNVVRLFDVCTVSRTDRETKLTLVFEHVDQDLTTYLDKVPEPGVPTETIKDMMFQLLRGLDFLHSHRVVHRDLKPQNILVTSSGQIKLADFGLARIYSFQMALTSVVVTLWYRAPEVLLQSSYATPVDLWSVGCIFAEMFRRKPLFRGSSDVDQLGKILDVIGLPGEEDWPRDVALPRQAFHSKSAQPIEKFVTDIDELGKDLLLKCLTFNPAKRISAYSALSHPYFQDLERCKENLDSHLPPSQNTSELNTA
T5 sequence (P24385 whole entry partner): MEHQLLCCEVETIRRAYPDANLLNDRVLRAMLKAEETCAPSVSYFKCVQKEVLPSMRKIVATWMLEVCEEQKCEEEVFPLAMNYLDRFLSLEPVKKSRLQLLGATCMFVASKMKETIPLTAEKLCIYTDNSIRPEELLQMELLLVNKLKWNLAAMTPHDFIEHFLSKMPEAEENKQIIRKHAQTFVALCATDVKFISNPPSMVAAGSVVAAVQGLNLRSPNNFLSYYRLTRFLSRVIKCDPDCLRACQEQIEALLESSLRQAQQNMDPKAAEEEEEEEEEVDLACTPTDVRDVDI
T4 sequence (P11802 whole entry): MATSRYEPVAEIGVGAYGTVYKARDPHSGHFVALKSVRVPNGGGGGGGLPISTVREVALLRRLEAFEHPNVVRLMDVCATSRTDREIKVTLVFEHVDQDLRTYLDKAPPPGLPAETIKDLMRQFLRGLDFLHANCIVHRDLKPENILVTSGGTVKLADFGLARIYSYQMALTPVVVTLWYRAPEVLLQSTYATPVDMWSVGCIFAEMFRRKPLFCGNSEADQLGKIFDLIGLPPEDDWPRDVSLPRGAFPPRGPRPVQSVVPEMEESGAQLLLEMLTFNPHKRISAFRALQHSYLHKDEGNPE
T4 sequence (P24385 whole entry partner): as the sequence (P24385 whole entry partner) above
T3 sequence (P07333 20-972): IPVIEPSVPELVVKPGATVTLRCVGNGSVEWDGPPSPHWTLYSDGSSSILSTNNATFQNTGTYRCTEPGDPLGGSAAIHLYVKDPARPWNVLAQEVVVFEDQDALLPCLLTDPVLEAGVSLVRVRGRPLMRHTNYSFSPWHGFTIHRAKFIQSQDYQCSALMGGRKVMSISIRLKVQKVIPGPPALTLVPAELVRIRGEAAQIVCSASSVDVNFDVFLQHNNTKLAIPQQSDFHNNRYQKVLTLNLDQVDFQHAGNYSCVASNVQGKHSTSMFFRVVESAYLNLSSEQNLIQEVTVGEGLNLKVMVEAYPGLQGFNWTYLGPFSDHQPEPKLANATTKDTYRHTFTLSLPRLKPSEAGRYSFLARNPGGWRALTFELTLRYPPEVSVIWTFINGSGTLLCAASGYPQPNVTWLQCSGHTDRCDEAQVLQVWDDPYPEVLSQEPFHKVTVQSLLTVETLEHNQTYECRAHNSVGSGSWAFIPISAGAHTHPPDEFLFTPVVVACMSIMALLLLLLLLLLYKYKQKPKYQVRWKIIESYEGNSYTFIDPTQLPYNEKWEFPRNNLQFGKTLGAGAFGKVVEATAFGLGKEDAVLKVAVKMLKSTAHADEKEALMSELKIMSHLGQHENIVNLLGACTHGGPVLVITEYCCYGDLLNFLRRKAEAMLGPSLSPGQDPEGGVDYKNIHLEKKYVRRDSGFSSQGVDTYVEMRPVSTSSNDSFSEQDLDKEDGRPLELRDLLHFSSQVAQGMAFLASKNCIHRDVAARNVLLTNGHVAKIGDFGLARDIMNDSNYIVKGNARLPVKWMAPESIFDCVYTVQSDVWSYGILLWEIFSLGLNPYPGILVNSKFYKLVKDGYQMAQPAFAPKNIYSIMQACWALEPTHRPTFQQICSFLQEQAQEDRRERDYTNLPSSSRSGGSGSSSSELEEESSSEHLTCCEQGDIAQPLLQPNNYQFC

Take `N#Cc1cc2cnc(NC3CCN(S(=O)(=O)C(F)F)CC3)nc2n(C2CCCC2)c1=O` [Compound No. 359, 8-cyclopentyl-2-((1-((difluoromethyl)sulfonyl)piperidin-4-yl)amino)-7-oxo-7,8-dihydropyrido[2,3-d]pyrimidine-6-carbonitrile]: the IC50 at CDK1 (cyclin B) (read-out: CDK1/B IC50) was greater than 5000 nM; against CDK2 (cyclin A), 1870 nM; on FMS kinase it was greater than 5000 nM; in test [1], 330 nM; in test [2], 3240 nM; at CDK4, 1.4 nM. At CDK6, the IC50 was 12 nM.

`CS(=O)(=O)N1CC[C@H](Nc2ncc3cc(C#N)c(=O)n(C4CCCC4)c3n2)[C@H](F)C1` [Compound No. 363, 8-cyclopentyl-2-((3R,4S)-3-fluoro-1-(methylsulfonyl)piperidin-4-ylamino)-7-oxo-7,8-dihydropyrido[2,3-d]pyrimidine-6-carbonitrile]: the IC50 against CDK1 (cyclin B) is 233 nM; on CDK2 (cyclin A) it was 17 nM; on FMS kinase, 138 nM; in test [1], 265 nM; in test [2] it was 1660 nM; at CDK4, 1.7 nM. Moreover, at CDK6, the IC50 was determined as 12 nM.

For `N#Cc1cc2cnc(Nc3ccc(S(N)(=O)=O)cc3)nc2n(C2CCCC2)c1=O` [Compound No. 377, 4-((6-cyano-8-cyclopentyl-7-oxo-7,8-dihydropyrido[2,3-d]pyrimidin-2-yl)amino)benzenesulfonamide], the IC50 on CDK1 (cyclin B) (read-out: CDK1/B IC50) worked out at 420 nM; on CDK2 (cyclin A), 25 nM; at FMS kinase, 27 nM; in test [2], 365 nM; at CDK4, 15 nM; at CDK6, 11 nM.

Take `Cn1ccc(S(=O)(=O)N2CCC(Nc3ncc4cc(C#N)c(=O)n(C5CCCC5)c4n3)CC2)n1` [Compound No. 373, 8-cyclopentyl-2-((1-((1-methyl-1H-pyrazol-3-yl)sulfonyl)piperidin-4-yl)amino)-7-oxo-7,8-dihydropyrido[2,3-d]pyrimidine-6-carbonitrile]: the IC50 was found to be 912 nM at CDK1 (cyclin B); 42 nM against CDK2 (cyclin A); 1440 nM at FMS kinase; 200 nM in test [2]; 4 nM on CDK4; 4 nM at CDK6.

As for `CS(=O)(=O)N1CCC(Nc2ncc3cc(C#N)c(=O)n(-c4c(F)cccc4F)c3n2)CC1` [Compound No. 376, 8-(2,6-difluorophenyl)-2-((1-(methylsulfonyl)piperidin-4-yl)amino)-7-oxo-7,8-dihydropyrido[2,3-d]pyrimidine-6-carbonitrile], the IC50 on CDK1 (cyclin B) came to 1460 nM; against CDK2 (cyclin A), 170 nM; at FMS kinase, 402 nM; in test [2], 2440 nM; on CDK4, 159 nM; on CDK6 it was 58 nM.

Consider `COCCS(=O)(=O)N1CCC(Nc2ncc3cc(C#N)c(=O)n(C4CCCC4)c3n2)CC1` [Compound No. 374, 8-cyclopentyl-2-((1-((2-methoxyethyl)sulfonyl)piperidin-4-yl)amino)-7-oxo-7,8-dihydropyrido[2,3-d]pyrimidine-6-carbonitrile], for which the IC50 against CDK1 (cyclin B) came out at 667 nM; against CDK2 (cyclin A) it was 70 nM; on FMS kinase, 838 nM; in test [2], 690 nM; on CDK4, 5 nM; on CDK6 it was 6 nM.

For the molecule `CS(=O)(=O)N1CC(Nc2ncc3cc(C#N)c(=O)n(C4CCCC4)c3n2)C1` [Compound No. 372, 8-cyclopentyl-2-((1-(methylsulfonyl)azetidin-3-yl)amino)-7-oxo-7,8-dihydropyrido[2,3-d]pyrimidine-6-carbonitrile], the IC50 was greater than 4170 nM on CDK1 (cyclin B) (read-out: CDK1/B IC50); 705 nM against CDK2 (cyclin A); 1800 nM on FMS kinase; greater than 10000 nM in test [2]; greater than 200 nM at CDK4; greater than 200 nM on CDK6.

With `N#Cc1cc2cnc(Nc3ccc4c(c3)CCNC4)nc2n(-c2c(F)cccc2F)c1=O` [Compound No. 375, 8-(2,6-difluorophenyl)-7-oxo-2-((1,2,3,4-tetrahydroisoquinolin-6-yl)amino)-7,8-dihydropyrido[2,3-d]pyrimidine-6-carbonitrile], the IC50 at CDK1 (cyclin B) (read-out: CDK1/B IC50) was found to be 1310 nM; on CDK2 (cyclin A) it was 303 nM; at FMS kinase, 13 nM; in test [2] it was 615 nM; at CDK4, 132 nM; on CDK6, 147 nM.

For the molecule `N#Cc1cc2cnc(Nc3ccc4c(c3)CCNC4)nc2n(C23CC(C2)C3)c1=O` [Compound No. 370, 8-(bicyclo[1.1.1]pentan-1-yl)-7-oxo-2-((1,2,3,4-tetrahydroisoquinolin-6-yl)amino)-7,8-dihydropyrido[2,3-d]pyrimidine-6-carbonitrile], the IC50 is 2730 nM on CDK1 (cyclin B) (read-out: CDK1/B IC50); 242 nM against CDK2 (cyclin A); 445 nM in test [1]; 1220 nM in test [2]; 124 nM on CDK4; 47 nM on CDK6.

Turning to `N#Cc1cc2cnc(Nc3ccc4c(n3)CCNC4)nc2n(C2CCCC2)c1=O` [Compound No. 61, 8-cyclopentyl-7-oxo-2-((5,6,7,8-tetrahydro-1,6-naphthyridin-2-yl)amino)-7,8-dihydropyrido[2,3-d]pyrimidine-6-carbonitrile], the IC50 was greater than 5000 nM at CDK1 (cyclin B) (read-out: CDK1/B IC50); 2780 nM at CDK2 (cyclin A); 2730 nM in test [1]; 4480 nM in test [2]; 98 nM on CDK4; 54 nM at CDK6.

As for `CCCCCCc1ccc(S(=O)(=O)N2CCC(Nc3ncc4cc(C#N)c(=O)n(C5CCCC5)c4n3)CC2)cc1` [Compound No. 382, 8-cyclopentyl-2-(1-(4-hexylphenylsulfonyl)piperidin-4-ylamino)-7-oxo-7,8-dihydropyrido[2,3-d] pyrimidine-6-carbonitrile], the IC50 was greater than 4860 nM on CDK1 (cyclin B) (read-out: CDK1/B IC50); 209 nM against CDK2 (cyclin A); 1840 nM in test [1]; greater than 10000 nM in test [2]; greater than 200 nM on CDK4; greater than 200 nM on CDK6.

Take `N#Cc1cc2cnc(NC3CCN(S(=O)(=O)CCCCCCO)CC3)nc2n(C2CCCC2)c1=O` [Compound No. 378, 8-cyclopentyl-2-((1-((6-hydroxyhexyl)sulfonyl)piperidin-4-yl)amino)-7-oxo-7,8-dihydropyrido[2,3-d]pyrimidine-6-carbonitrile]: the IC50 on CDK1 (cyclin B) was 325 nM; against CDK2 (cyclin A), 30 nM; on FMS kinase, 402 nM; in test [2], 670 nM; on CDK4, 3 nM; at CDK6 it was 5 nM.

Take `CC(C)S(=O)(=O)N1CCC(Nc2ncc3cc(C#N)c(=O)n(C4CCCC4)c3n2)CC1` [Compound No. 355, 8-cyclopentyl-2-((1-(isopropylsulfonyl)piperidin-4-yl)amino)-7-oxo-7,8-dihydropyrido[2,3-d]pyrimidine-6-carbonitrile]: the IC50 on CDK1 (cyclin B) amounted to 362 nM; on CDK2 (cyclin A), 20 nM; in test [1], 495 nM; in test [2], 1520 nM; at CDK4, 6.5 nM; on CDK6, 8 nM.
